{"source": "patent US8071575B2", "about": "“Methods and compounds for the targeted delivery of agents to bone for interaction therewith” (priority 2007, dated 2011)", "assay_type_in_all_cases": "in vivo, Sprague-Dawley female rats", "key": {"OVX rats [1]": {"tested_on": "OVX rats", "experiment": "Rat Osteocalcin EIA (serum)", "conditions": "100 or 1000 μg/kg doses", "method": "(§1) Animals. Six month old, bilaterally ovariectomized (OVX) or sham operated Sprague-Dawley female rats (Harlan Laboratories, Indianapolis, Ind.) were maintained at the University of Louisville Research Resources Center at 22° C. with a 12-h light/dark cycle and ad libitum access to tap water and rodent chow (Purina Laboratory Rodent Diet 5001). All animal procedures were approved by the Institutional Animal Care and Use Committee, which is certified by the American Association for Accreditation of Laboratory Animal Care.\nIn vivo experiments were conducted in order to investigate the efficacy of compounds of the presently-disclosed subject matter. In all of the experiments, OVX and sham operated rats were randomly divided into groups of 5-7 animals. […]\nRat Osteocalcin EIA. […] Rat serum osteocalcin levels were measured using the Rat Osteocalcin EIA Kit from Biomedical Technologies, Incorporated (Stoughton, Mass.) as recommended by the manufacturer."}, "OVX rats [2]": {"tested_on": "OVX rats", "experiment": "Femoral density via Archimedes' Principle (whole bone)", "conditions": "OVX rats, three times per week for 6 weeks", "method": "as §1\n(§2) In vivo experiments were conducted in order to investigate the efficacy of compounds of the presently-disclosed subject matter. In all of the experiments, OVX and sham operated rats were randomly divided into groups of 5-7 animals. In all of the studies experimental groups included: i) Sham-operated control (euthanized six weeks post surgery as a pretreatment control), ii) OVX control (euthanized six weeks post surgery as a pretreatment control), iii) Sham control receiving vehicle, iv) OVX control receiving vehicle, v) OVX receiving 17-ethinyl estradiol (equimolar concentration with a selected test compound), vi) OVX receiving alendronate (1.6 mg/kg), and vii) OVX receiving parathyroid hormone 1-34 (PTH) ([…]). 17-ethinyl estradiol (17 EE) is a free estrogenic agent known to be orally active, and can serve as an example of an anti-catabolic agent. Alendronate (Alen) is a bisphosphonate that is currently used to treat osteoporosis (e.g., Fosamax®, Merck & Co., Inc,), and can serve as an example of an anti-catabolic agent. Parathyroid hormone 1-34 (PTH) is an agent that can serve as an example of an anabolic agent. All compounds and vehicle (1% DMSO in corn oil) were administered three times per week orally by gavage except for PTH which was administered via a subcutaneous injection in a volume of 0.5 ml/kg body mass thrice per week. Compound administration was initiated 6 weeks following surgery and lasted for 6 weeks (18 doses total).\n(§3) Compounds of the presently-disclosed subject matter were orally administered to OVX rats at various doses. As indicated above all BTE's were administered three times per week for 6 weeks.\n(§4) Following 6 weeks of treatment, blood was obtained from each animal via cardiac puncture following an overnight fast and animals were subsequently euthanized via carbon dioxide asphyxiation. Blood was centrifuged immediately and the obtained serum samples were aliquoted and stored at −70° C. prior to analysis. Uteri were removed and fresh weights were obtained. Uterine masses were normalized to body mass at the end of the experiment. The left and right femora and left and right tibiae were subsequently collected from each animal, cleaned of soft tissue, and stored in saline at 4° C. prior to analysis.\nFemoral Density via Archimedes' Principle. Right femora were submerged in distilled water and fully hydrated under a vacuum for 1 hr. Subsequently, the mass of each hydrated femur was obtained in air and when submerged in water. Densities were determined using Archimedes' Principle according to the following formula: density=[mass of hydrated femur/(mass of hydrated femur−mass of hydrated femur submerged in water)]×density of distilled water at a given temperature (See Keenan, et al. Comparison of bone density measurement techniques: DXA and Archimedes' principle. J Bone Miner Res 1997; 12:1903-7.). The obtained density measurements were associated with whole bone."}, "OVX rats [3]": {"tested_on": "OVX rats", "experiment": "Regional femoral density via Archimedes' Principle", "conditions": "three times per week for 6 weeks", "method": "as §1, §2, §3\nFollowing 6 weeks of treatment, blood was obtained from each animal via cardiac puncture following an overnight fast and animals were subsequently euthanized via carbon dioxide asphyxiation. […]\nRegional Femoral Density via Archimedes' Principle. […] Briefly, each femur was measured with a Cen-Tech Digital Caliper and a cut was made from each end at 20% of the length of the femur plus half the width of the blade. Subsequently, the bone marrow was washed out of the femoral diaphysis and the Archimedes density for each of the three femoral regions was determined as described above."}, "OVX rats [4]": {"tested_on": "OVX rats", "experiment": "Quantitative determination of lipid metabolism (total cholesterol, HDL, LDL) in rat serum", "method": "as §1, §2, §4\nQuantitative Determination of Lipid Metabolism (Total Cholesterol HDL, and LDL) in Rat Serum. Total cholesterol, high-density lipoprotein (HDL), and low-density lipoprotein (LDL) were quantitatively determined in the serum of rats in order to evaluate the extraosseous effects of estrogen treatment on lipid metabolism. Commercially available kits from Wako Diagnostics (Richmond, Va.) were used for the evaluations as recommended by the manufacturer."}, "OVX rats [5]": {"tested_on": "OVX rats", "experiment": "Uterine mass and uterine mass to body weight ratio in OVX rats", "conditions": "OVX rats, oral 3000 μg/kg; compared to animals treated with 17-ethinyl estradiol", "method": "as §1, §2, §3, §4\nUterine Mass and Body Weight. […] Uterine mass can be used to as a measure of estrogenic effect occurring in a tissue outside the bone in response to treatment with a test compound or composition. Generally, a lower uterine mass can be associated with a decreased risk of adverse side effects associated with the test compound or composition. A ratio of uterine mass to body weight can be used to correct for any increase in uterine size attributable to the relative size of the individual animal. Body weight and/or uterine mass also serve as an indirect measures of toxicity of a test compound."}, "[6]": {"experiment": "Body weight of OVX rats during treatment", "conditions": "oral 3000 μg/kg, three times per week for 6 weeks", "method": "as §1\nIn vivo experiments were conducted in order to investigate the efficacy of compounds of the presently-disclosed subject matter. In all of the experiments, OVX and sham operated rats were randomly divided into groups of 5-7 animals. In all of the studies experimental groups included: i) Sham-operated control (euthanized six weeks post surgery as a pretreatment control), ii) OVX control (euthanized six weeks post surgery as a pretreatment control), iii) Sham control receiving vehicle, iv) OVX control receiving vehicle, v) OVX receiving 17-ethinyl estradiol (equimolar concentration with a selected test compound), vi) OVX receiving alendronate (1.6 mg/kg), and vii) OVX receiving parathyroid hormone 1-34 (PTH) ([…]). 17-ethinyl estradiol (17 EE) is a free estrogenic agent known to be orally active, and can serve as an example of an anti-catabolic agent. […]"}}}
{"compound": "COc1ccc(NC(=O)COCCOCCNC(=O)CCOC2CCC3C4CCc5cc(O)ccc5C4CCC23C)c(O)c1C(N)=O", "note": "(stereo not shown) [Formula 123]", "values": [{"measurement": "serum osteocalcin levels", "setting": "OVX rats [1]", "value": "stimulates osteocalcin"}, {"measurement": "whole bone density (right femora)", "setting": "OVX rats [2]; oral 10, 100, or 1000 μg/kg", "value": "in the same ranges as those animals receiving 17-ethinyl estradiol (17 EE), Alendronate (Alen), or Parathyroid hormone 1-34 (PTH)"}, {"measurement": "regional bone density (left femur)", "setting": "OVX rats [3]; oral 10, 100, or 1000 μg/kg", "value": "increased regional bone densities, as compared to the OVX animals"}, {"measurement": "lipid metabolism (total cholesterol, HDL, LDL in serum)", "setting": "OVX rats [4]; rat, in vivo", "value": "limited or no effect"}]}
{"compound": "COc1ccc(NC(=O)CCC(=O)OC2CCC3C4CCC5=CC(=O)CCC5(C)C4CCC23C)c(O)c1C(N)=O", "note": "(stereo not shown) [Formula 33]", "values": [{"measurement": "whole bone density (right femora)", "setting": "OVX rats [2]; oral 3000 μg/kg", "value": "higher than that of the OVX animals"}, {"measurement": "regional bone density (proximal and distal left femur)", "setting": "OVX rats [3]; oral 3000 μg/kg", "value": "higher than that of the OVX animals"}, {"measurement": "ratio of uterine mass to body weight", "setting": "OVX rats [5]", "value": "lower"}, {"measurement": "uterine mass", "setting": "OVX rats [5]", "value": "lower"}, {"measurement": "lipid metabolism (total cholesterol, HDL, LDL in serum)", "setting": "OVX rats [4]; present-tense example, no data or figure", "value": "limited or no effect"}, {"measurement": "body weight", "setting": "[6]", "value": "lower body weights as compared to the OVX animals"}]}
